The values below come from US7071231B2, “Naphthalene ureas as glucose uptake enhancers” (Telik, Inc., priority 1999, dated 2006).

Structures can show the parent of a compound that is named as a salt. Where two headings read alike, the source gives them in different places.

The test system of this experiment is 3T3 L1 fibroblasts. Put plainly: Glucose transport activity assay (14C-2-deoxy-D-glucose uptake). The format is cell-based. The method in brief:
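Differentiated 3T3 L1 adipocytes (IBMX/dexamethasone/insulin induction), serum-starved overnight, preincubated 30 min at 37 °C with compound ± insulin in pH 7.4 salt buffer, then 30 min with 5 μCi/ml 14C-2-deoxy-D-glucose. Lysate radioactivity counted; EC = concentration raising uptake above 150% of vehicle control.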

Where [1] appears, read: Mus musculus, EC (effective concentration) for increase in glucose transport, 14C-2-deoxy-D-glucose, 3T3 L1 cells, read-out: Concentration (μM) to reach >150% activity of vehicle control.
The mark [2] stands for this setting: EC (effective concentration) for increase in glucose transport, 14C-2-deoxy-D-glucose, 3T3 L1 cells, read-out: Concentration (μM) to reach >150% activity of vehicle control.

As to `CN(c1cccc(S(=O)(=O)O)c1)S(=O)(=O)c1ccc2ccc(NC(=O)Nc3ccc4ccc(S(=O)(=O)N(C)c5cccc(S(=O)(=O)O)c5)cc4c3)cc2c1` [Compound 103, 3-{methyl[(7-{[(7-{[methyl(3-sulfophenyl)amino]sulfonyl}(2-naphthyl))amino]-carbonylamino}-(2-naphthyl))sulfonyl]amino}benzenesulfonic acid dipotassium salt], the EC (150% of vehicle control) (Mus musculus, 3T3-L1, read-out: Concentration (μM) to reach >150% activity of vehicle control) is 3.2 µM.
For the molecule `O=C(Nc1ccc2ccc(S(=O)(=O)Nc3cccc(S(=O)(=O)O)c3)cc2c1)Nc1ccc2ccc(S(=O)(=O)Nc3cccc(S(=O)(=O)O)c3)cc2c1` [Compound 114, 3-{[(7-{[N-(7-{[(3-sulfophenyl)amino]sulfonyl}-2-naphthyl)carbamoyl]amino}-2-naphthyl)sulfonyl]amino}benzenesulfonic acid disodium salt], the EC (150% of vehicle control) under setting [1] is 3.2 µM.
As to `O=C(Nc1ccc2ccc(C(=O)Nc3cccc(C(=O)O)c3)cc2c1)Nc1ccc2ccc(C(=O)Nc3cccc(C(=O)O)c3)cc2c1` [Compound 116, 3-({7-[({7-[N-(3-carboxyphenyl)carbamoyl]-2-naphthyl}amino)carbonylamino]-2-naphthyl}carbonylamino)benzoic acid], the EC (150% of vehicle control) under setting [1] is above 32 µM.
Take `O=C(Nc1ccc2ccc(NS(=O)(=O)c3cccc(C(=O)O)c3)cc2c1)Nc1ccc2ccc(NS(=O)(=O)c3cccc(C(=O)O)c3)cc2c1` [Compound 129, 3-{[(7-{[N-(7-{[(3-carboxyphenyl)sulfonyl]amino}-2-naphthyl)carbamoyl]amino}-2-naphthyl)amino]sulfonyl}benzoic acid]: the EC (150% of vehicle control) under setting [1] was 32 µM.
In the case of `COC(=O)c1cc(NS(=O)(=O)c2ccc3ccc(NC(=S)Nc4ccc5ccc(S(=O)(=O)Nc6ccc(Cl)c(C(=O)OC)c6)cc5c4)cc3c2)ccc1Cl` [Compound 157, methyl 2-chloro-5-[({7-[({[7-({[4-chloro-3-(methoxycarbonyl)phenyl]amino}sulfonyl)(2-naphthyl)]amino}thioxomethyl)amino](2-naphthyl)}sulfonyl)amino]benzoate], under setting [1], the EC (150% of vehicle control) is above 32 µM.
Regarding `COC(=O)c1cc(NS(=O)(=O)c2ccc3ccc(/N=C(/Nc4ccc5ccc(S(=O)(=O)Nc6ccc(Cl)c(C(=O)OC)c6)cc5c4)SC)cc3c2)ccc1Cl` [Compound 158, methyl 5-({[7-((1Z)-1-aza-2-{[7-({[4-chloro-3-(methoxycarbonyl)phenyl]amino}sulfonyl)(2-naphthyl)]amino}-2-methylthiovinyl)(2-naphthyl)]sulfonyl}amino)-2-chlorobenzoate], the EC (150% of vehicle control) under setting [1] was above 32 µM.
Take `CN=C(Nc1ccc2ccc(NS(=O)(=O)c3ccc(Cl)c(C(=O)OC)c3)cc2c1)Nc1ccc2ccc(NS(=O)(=O)c3ccc(Cl)c(C(=O)OC)c3)cc2c1` [Compound 161, methyl 5-[({7-[((1E)-2-aza-1-{[7-({[4-chloro-3-(methoxycarbonyl)phenyl]sulfonyl}amino)(2-naphthyl)]amino}prop-1-enyl)amino](2-naphthyl)}amino)sulfonyl]-2-chlorobenzoate]: the EC (150% of vehicle control) under setting [2] is given as above 32 µM.
Still for that read-out and setting: for `CN=C(Nc1ccc2ccc(NS(=O)(=O)c3ccc(Cl)c(C(=O)O)c3)cc2c1)Nc1ccc2ccc(NS(=O)(=O)c3ccc(Cl)c(C(=O)O)c3)cc2c1` [Compound 162, 5-({[7-({(1E)-2-aza-1-[(7-{[(3-carboxy-4-chlorophenyl)sulfonyl]amino}(2-naphthyl))amino]prop-1-enyl}amino)(2-naphthyl)]amino}sulfonyl)-2-chlorobenzoic acid] the value was above 32 µM; for `COC(=O)c1cc(S(=O)(=O)Nc2ccc3ccc(NC(=NC#N)Nc4ccc5ccc(NS(=O)(=O)c6ccc(Cl)c(C(=O)OC)c6)cc5c4)cc3c2)ccc1Cl` [Compound 165, methyl 5-[({7-[((1E)-2-aza-1-{[7-({[4-chloro-3-(methoxycarbonyl)phenyl]sulfonyl}amino)(2-naphthyl)]amino}-2-cyanovinyl)amino](2-naphthyl)}amino)sulfonyl]-2-chlorobenzoate], 3.2 µM.
Same read-out and setting: in the case of `N#CN=C(Nc1ccc2ccc(NS(=O)(=O)c3ccc(Cl)c(C(=O)O)c3)cc2c1)Nc1ccc2ccc(NS(=O)(=O)c3ccc(Cl)c(C(=O)O)c3)cc2c1` [Compound 166, 5-({[7-({(1E)-2-aza-1-[(7-{[(3-carboxy-4-chlorophenyl)sulfonyl]amino}(2-naphthyl))amino]-2-cyanovinyl}amino)(2-naphthyl)]amino}sulfonyl)-2-chlorobenzoic acid] it was 3.2 µM; in that of `C=CCN=C(Nc1ccc2ccc(NS(=O)(=O)c3ccc(Cl)c(C(=O)OC)c3)cc2c1)Nc1ccc2ccc(NS(=O)(=O)c3ccc(Cl)c(C(=O)OC)c3)cc2c1` [Compound 167, methyl 5-[({7-[((1E)-2-aza-1-{[7-({[4-chloro-3-(methoxycarbonyl)phenyl]sulfonyl}amino)(2-naphthyl)]amino}penta-1,4-dienyl)amino](2-naphthyl)}amino)sulfonyl]-2-chlorobenzoate], above 32 µM.
For the molecule `C=CCN=C(Nc1ccc2ccc(NS(=O)(=O)c3ccc(Cl)c(C(=O)O)c3)cc2c1)Nc1ccc2ccc(NS(=O)(=O)c3ccc(Cl)c(C(=O)O)c3)cc2c1` [Compound 168, 5-({[7-({(1E)-2-aza-1-[(7-{[(3-carboxy-4-chlorophenyl)sulfonyl]amino}(2-naphthyl))amino]penta-1,4-dienyl}amino)(2-naphthyl)]amino}sulfonyl)-2-chlorobenzoic acid], under setting [2], the EC (150% of vehicle control) is given as above 32 µM.
Turning to `O=C(Nc1ccc2cc(S(=O)(=O)Nc3cccc(S(=O)(=O)O)c3)ccc2c1)Nc1ccc2cc(S(=O)(=O)Nc3cccc(S(=O)(=O)O)c3)ccc2c1` [Compound 169, 3-{[(6-{[(6-{[(3-sulfophenyl)amino]sulfonyl}-2-naphthyl)amino]carbonylamino}-2-naphthyl)sulfonyl]amino}benzenesulfonic acid], the EC (150% of vehicle control) under setting [1] was found to be 3.2 µM.
Regarding `O=C(Nc1ccc2cc(S(=O)(=O)Nc3cccc(C(=O)O)c3)ccc2c1)Nc1ccc2cc(S(=O)(=O)Nc3cccc(C(=O)O)c3)ccc2c1` [Compound 171, 3-{[(6-{[(6-{[(3-carboxyphenyl)amino]sulfonyl}-2-naphthyl)amino]carbonylamino}-2-naphthyl)sulfonyl]amino}benzoic acid], the EC (150% of vehicle control) under setting [1] worked out at 3.2 µM.
For `O=C(Nc1ccc2cc(S(=O)(=O)Nc3ccc(C(=O)O)cc3)ccc2c1)Nc1ccc2cc(S(=O)(=O)Nc3ccc(C(=O)O)cc3)ccc2c1` [Compound 173, 4-{[(6-{[(6-{[(4-carboxyphenyl)amino]sulfonyl}-2-naphthyl)amino]carbonylamino}-2-naphthyl)sulfonyl]amino}benzoic acid], the EC (150% of vehicle control) under setting [1] was 3.2 µM.
With `O=C(Nc1ccc2cc(S(=O)(=O)Nc3cc(C(=O)O)cc(C(=O)O)c3)ccc2c1)Nc1ccc2cc(S(=O)(=O)Nc3cc(C(=O)O)cc(C(=O)O)c3)ccc2c1` [Compound 175, 5-{[(6-{[(6-{[(3,5-dicarboxyphenyl)amino]sulfonyl}-2-naphthyl)amino]carbonylamino}-2-naphthyl)sulfonyl]amino}benzene-1,3-dicarboxylic acid], the EC (150% of vehicle control) under setting [1] is 3.2 µM.
On the same count and under the same terms, for `O=C(Nc1ccc2cc(S(=O)(=O)Nc3c(F)c(F)cc(C(=O)O)c3F)ccc2c1)Nc1ccc2cc(S(=O)(=O)Nc3c(F)c(F)cc(C(=O)O)c3F)ccc2c1` [Compound 177, 3-{[(6-{[(6-{[(3-carboxy-2,5,6-trifluorophenyl)amino]sulfonyl}(2-naphthyl))amino]carbonylamino}(2-naphthyl))sulfonyl]amino}-2,4,5-trifluorobenzoic acid] the value was above 32 µM.
Turning to `O=C(O)Cc1ccc(NS(=O)(=O)c2ccc3cc(NC(=O)Nc4ccc5cc(S(=O)(=O)Nc6ccc(CC(=O)O)cc6)ccc5c4)ccc3c2)cc1` [Compound 179, 2-[4-({[6-({N-[6-({[4-(carboxymethyl)phenyl]amino}sulfonyl)-2-naphthyl]carbamoyl}amino)-2-naphthyl]sulfonyl}amino)phenyl]acetic acid], the EC (150% of vehicle control) under setting [1] was above 32 µM.
On the same count and under the same terms, for `O=C(Nc1ccc2cc(S(=O)(=O)N3CCCC(C(=O)O)C3)ccc2c1)Nc1ccc2cc(S(=O)(=O)N3CCCC(C(=O)O)C3)ccc2c1` (centres unmarked) [Compound 181, 1-({6-[({6-[(3-carboxypiperidyl)sulfonyl]-2-naphthyl}amino)carbonylamino]-2-naphthyl}sulfonyl)piperidine-3-carboxylic acid] the value was 3.2 µM.
As for “methyl 2-chloro-5-[({7-[({[7-({[4-chloro-3-(methoxycarbonyl)phenyl]amino}sulfonyl)(2-naphthyl)]amino}iminomethyl)amino](2-naphthyl)}sulfonyl)amino]benzoate [Compound 159]”, under setting [2], the EC (150% of vehicle control) amounted to 3.2 µM.
